The results in this text go back to ChEMBL document CHEMBL1123349, “Analogues of 1,3-dipropyl-8-phenylxanthine: enhancement of selectivity at A1-adenosine receptors by aryl substituents” (J Med Chem, 1986).

Several values for one entry are separate records, joined by “and”; a condition that tells them apart may be missing. Equal entries are not always repeated. Some results are limits rather than exact numbers.

Experiment [1] has as its target Adenosine receptors; A1 & A2 (Rattus norvegicus) (UniProt P29276+P25099+P30543). Description: Selectivity ratio was expressed as the ratio of binding affinity towards Adenosine A2 receptor to that of Adenosine A1 receptor in rat.
Experiment [2] has as its target T1, Adenosine receptor A1 (Rattus norvegicus, UniProt P25099).
T1 sequence (P25099 whole entry): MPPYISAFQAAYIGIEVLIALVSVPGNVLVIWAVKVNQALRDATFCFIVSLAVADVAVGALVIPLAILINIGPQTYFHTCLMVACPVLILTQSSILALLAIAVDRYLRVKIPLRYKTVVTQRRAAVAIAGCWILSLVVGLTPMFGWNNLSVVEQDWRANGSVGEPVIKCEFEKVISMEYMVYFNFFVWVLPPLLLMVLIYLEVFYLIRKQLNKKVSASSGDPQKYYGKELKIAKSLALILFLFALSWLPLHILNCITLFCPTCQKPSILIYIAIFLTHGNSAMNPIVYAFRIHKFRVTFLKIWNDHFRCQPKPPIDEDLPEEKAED
Description: Binding affinity against A1 adenosine receptors of the central nervous system.

The target of experiment [3] is Adenosine A2 receptor (Rattus norvegicus, UniProt P29276+P30543). Description: Binding affinity against A2 adenosine receptors of the central nervous system. In kind it is protein assay.

Regarding `CCCn1c(=O)c2nc(-c3ccc(S(N)(=O)=O)cc3)[nH]c2n(CCC)c1=O`, the Ratio in experiment [1] came out at 15. The results for the Ki in experiment [2] and in experiment [3] were 8.5 nM and 115 nM, respectively.

For the molecule `CCCn1c(=O)c2nc(-c3ccc(F)cc3F)[nH]c2n(CCC)c1=O`, the Ratio in experiment [1] worked out at 5.9. The Ki (in general, a measure of affinity in units of concentration, obtained from inhibition or displacement) in experiment [3] is given as 290 nM.

Regarding `CCCn1c(=O)c2nc(-c3cc(O)ccc3O)[nH]c2n(CCC)c1=O`, the Ratio in experiment [1] was 9.7. Besides, the Ki in experiment [2] is 360 nM; in experiment [3], 3500 nM.

For the molecule `CCCn1c(=O)c2[nH]c(-c3ccc(F)cc3F)nc2n(CCC)c1=O`, the affinity in experiment [2] corresponds to a Ki of 51 nM.

For `CCCn1c(=O)c2[nH]c(-c3ccc(O)c(Cl)c3)nc2n(CCC)c1=O`, the affinity in experiment [2], expressed as Ki, was 36 nM.

On to `CCCn1c(=O)c2[nH]c(-c3ccc(OC)cc3O)nc2n(CCC)c1=O`, for which, in experiment [1], the Ratio came to 89. Also, the Ki in experiment [2] is 11 nM; in experiment [3], 980 nM.

With `CCCn1c(=O)c2nc(-c3cccc(O)c3O)[nH]c2n(CCC)c1=O`, the Ratio in experiment [1] came to 6.4. Besides, the Ki in experiment [2] was determined as 33 nM; in experiment [3] it was 210 nM.

As to `CCCn1c(=O)c2nc(-c3ccc(O)c(Cl)c3)[nH]c2n(CCC)c1=O`, the Ratio in experiment [1] was found to be 3.9. The molecule further displayed an inhibition constant (Ki) in experiment [3] of 140 nM.

Turning to `CCCn1c(=O)c2nc(-c3ccc(S(=O)(=O)O)cc3)[nH]c2n(CCC)c1=O`, in experiment [1], the Ratio is 3.4. Besides, the Ki in experiment [3] was 710 nM.

`CCCn1c(=O)c2nc(-c3ccc(N)cc3N)[nH]c2n(CCC)c1=O`: the Ratio in experiment [1] is 2.8. Also, the figures for the Ki in experiment [2] and in experiment [3] were 4.6 nM and 13 nM, respectively.

`CCCn1c(=O)c2nc(-c3ccc(OC)cc3)[nH]c2n(CCC)c1=O`: in experiment [2], the Ki worked out at 14 nM.

Regarding `CCCn1c(=O)c2nc(-c3ccc(N(C)C)cc3)[nH]c2n(CCC)c1=O`, the Ratio in experiment [1] is 2.2. For the same molecule, the results for the Ki in experiment [2] and in experiment [3] were 45 nM and 100 nM, respectively.

As to `CCCn1c(=O)c2nc(-c3ccc(Cl)cc3N)[nH]c2n(CCC)c1=O`, in experiment [1], the Ratio came out at 400. This molecule also came in with a Ki in experiment [3] of 1000 nM.

With `CCCn1c(=O)c2nc(-c3ccc(C(N)=O)cc3)[nH]c2n(CCC)c1=O`, the inhibition constant (Ki) in experiment [2] was 7 nM and 25 nM; in experiment [3] it was 72 nM and 55 nM.

Turning to `CCCn1c(=O)c2nc(-c3ccc(Cl)cc3OC)[nH]c2n(CCC)c1=O`, the Ratio in experiment [1] is > 7. Also, the Ki was 420 nM in experiment [2] and > 3000 nM in experiment [3].

With `CCCn1c(=O)c2nc(-c3ccc(N)cc3)[nH]c2n(CCC)c1=O`, the Ratio in experiment [1] amounted to 1. Besides, the inhibition constant (Ki) stood at 27 nM in experiment [2] and 28 nM in experiment [3].

Molecule `CCCn1c(=O)c2[nH]c(-c3ccc(O)cc3O)nc2n(CCC)c1=O` yielded a Ki in experiment [2] of 15 nM.

`CCCn1c(=O)c2nc(-c3ccc(OC(C)=O)cc3)[nH]c2n(CCC)c1=O`: in experiment [1], the Ratio amounted to 1.5. Further, the Ki was found to be 8 nM in experiment [2] and 12 nM in experiment [3].
